Data published in ChEMBL document CHEMBL5550130, “Discovery of harmiprims, harmine-primaquine hybrids, as potent and selective anticancer and antimalarial compounds” (Bioorg Med Chem, 2024).
Activity calls are given as the source filed them. No cut-off for these calls is given here.

Key:
Plasmodium falciparum [1] = experiment: Gametocytocidal activity against gametocytes of Plasmodium falciparum NF54 assessed as inhibition of ATP production measured after 48 hrs by Bac-TiterGlo analysis; assay type: functional, organism-based; details: NF54, 48 h
HepG2 = experiment: Antiproliferative activity against human HepG2 cells assessed as reduction in cell viability incubated for 72 hrs by MTT assay; assay type: functional, cell-based; details: HepG2, 72 h
[2] = Selectivity index, ratio of IC50 for antiproliferative activity against human HEK293T cells to IC50 for antiproliferative activity against human MCF7 cells; assay type: toxicity, cell-based; details: HEK293T cells versus MCF7 cells, read-out: Ratio IC50
[3] = Antiproliferative activity against human HEK293T cells assessed as reduction in cell viability incubated for 72 hrs by MTT assay; assay type: toxicity, cell-based, HEK-293T
MCF7 [4] = experiment: Antiproliferative activity against human MCF7 cells assessed as reduction in cell viability incubated for 72 hrs by MTT assay; assay type: functional, cell-based; details: MCF7, 72 h
HCT-116 = experiment: Antiproliferative activity against human HCT-116 cells assessed as reduction in cell viability incubated for 72 hrs by MTT assay; assay type: functional, cell-based; details: HCT-116, 72 h
Plasmodium falciparum [5] = experiment: Resistance index, ratio of IC50 for antiplasmodial activity against erythrocytic stage of chloroquine-resistant Plasmodium falciparum Dd2 to IC50 for antiplasmodial activity against erythrocytic stage of chloroquine-sensitive Plasmodium falciparum 3D7; assay type: functional
Plasmodium falciparum [6] = experiment: Antiplasmodial activity against erythrocytic stage of chloroquine-sensitive Plasmodium falciparum 3D7 assessed as inhibition of parasite growth incubated for 3 days by HRP2-ELISA; assay type: functional, organism-based; details: 3D7, 72 h
Plasmodium falciparum [7] = experiment: Antiplasmodial activity against erythrocytic stage of chloroquine-resistant Plasmodium falciparum Dd2 assessed as inhibition of parasite growth incubated for 3 days by HRP2-ELISA; assay type: functional, organism-based; details: Dd2, 72 h
[8] = Selectivity index, ratio of IC50 for antiproliferative activity against human HEK293T cells to IC50 for antiplasmodial activity against erythrocytic stage of chloroquine-sensitive Plasmodium falciparum 3D7; assay type: toxicity, cell-based; details: read-out: Ratio IC50
SW-620 = experiment: Antiproliferative activity against human SW620 cells assessed as reduction in cell viability incubated for 72 hrs by MTT assay; assay type: functional, cell-based; details: SW-620, 72 h
Calf thymus DNA [9] = experiment: Binding affinity to calf thymus DNA assessed as binding constant by UV-Visible absorption spectroscopic analysis; details: Bos taurus
RNA [10] = experiment: Binding affinity to double stranded RNA (unknown origin) by CD spectroscopic analysis; assay type: nucleic-acid assay
RNA [11] = experiment: Binding affinity to double stranded RNA (unknown origin) assessed as thermal stabilization by thermal denaturation based UV-Visible absorption spectroscopic analysis; assay type: nucleic-acid assay
dsDNA [12] = experiment: Binding affinity to double stranded DNA (unknown origin) by CD spectroscopic analysis; assay type: nucleic-acid assay
RNA [13] = experiment: Binding affinity to double stranded RNA (unknown origin) assessed as binding constant by UV-Visible absorption spectroscopic analysis; assay type: nucleic-acid assay
Calf thymus DNA [14] = experiment: Binding affinity to calf thymus DNA assessed as thermal stabilization by thermal denaturation based UV-Visible absorption spectroscopic analysis; details: Bos taurus
RNA [15] = experiment: Binding affinity to double stranded RNA (unknown origin) assessed as increase in fluorescence intensity by fluorescence quenching analysis; assay type: nucleic-acid assay
dsDNA [16] = experiment: Binding affinity to double stranded DNA (unknown origin) assessed as increase in fluorescence intensity by fluorescence quenching analysis; assay type: nucleic-acid assay
[17] = Drug uptake in human MCF7 cells at 10 uM incubated for 30 mins by fluorescence microscopic analysis; assay type: ADME, cell-based; details: mcf7, 0.5 h
[18] = Drug uptake in human MCF7 cells at 1 uM incubated for 30 mins by Mitotracker Deep Red staining confocal microscopic analysis; assay type: ADME, cell-based; details: mcf7, 0.5 h
Plasmodium berghei [19] = experiment: Antiplasmodial activity against hepatic stage of Plasmodium berghei sporozoites infected in human Huh-7 cells assessed as reduction in parasite growth at 1 uM incubated for 1 hr by bioluminescence assay; assay type: functional, organism-based
MCF7 [20] = experiment: Induction of cell cycle arrest in human MCF7 cells assessed as increase in accumulation of cells at G2/M phase at 0.75 uM measured upto 48 hrs by propidium iodide/RNAse A staining based cell sorter analysis; assay type: functional
MCF7 [21] = experiment: Induction of cell cycle arrest in human MCF7 cells assessed as decrease in accumulation of cells at S phase at 0.75 uM measured after 24 hrs by propidium iodide/RNAse A staining based cell sorter analysis; assay type: functional
Plasmodium berghei [22] = experiment: Antiplasmodial activity against hepatic stage of Plasmodium berghei sporozoites infected in human Huh-7 cells assessed as reduction in parasite growth at 10 uM incubated for 1 hr by bioluminescence assay; assay type: functional, organism-based
MCF7 [23] = experiment: Induction of cell cycle arrest in human MCF7 cells assessed as increase in accumulation of cells at G1 phase at 0.75 uM measured after 24 hrs by propidium iodide/RNAse A staining based cell sorter analysis; assay type: functional
Huh-7 [24] = experiment: Cytotoxicity against human Huh-7 cells infected with Plasmodium berghei sporozoites at 1 uM by alamar blue staining based assay; assay type: functional, cell-based
MCF7 [25] = experiment: Induction of cell cycle arrest in human MCF7 cells assessed as increase in accumulation of cells at G1 phase at 0.75 uM measured after 48 hrs by propidium iodide/RNAse A staining based cell sorter analysis; assay type: functional
Huh-7 [26] = experiment: Cytotoxicity against human Huh-7 cells infected with Plasmodium berghei sporozoites at 10 uM by alamar blue staining based assay; assay type: functional, cell-based
Plasmodium berghei [27] = experiment: Antiplasmodial activity against hepatic stage of Plasmodium berghei sporozoites infected in human Huh-7 cells assessed as inhibition of parasite growth incubated for 1 hr by bioluminescence assay; assay type: functional, organism-based; details: Huh-7, 1 h
[28] = Drug uptake in human MCF7 cells at 10 uM incubated for 1 hr by fluorescence microscopic analysis; assay type: ADME, cell-based; details: mcf7, 1 h

CN(C)c1ccc2nc3ccc(N(C)C)cc3[s+]c2c1 [METHYLENE BLUE ANHYDROUS] showed an IC50 (Plasmodium falciparum [1]) of 506 nM.
O=c1[nH]cc(F)c(=O)[nH]1 [FLUOROURACIL] gave an IC50 (HepG2) of 5.46 µM, a selectivity ratio [2] of 0.74 and an IC50 at 72 h [3] of 17.6 µM. For the same compound, the IC50 (MCF7 [4]) was 23.9 µM and the IC50 (HCT-116) was 14.4 µM.
For COc1cc(NC(C)CCCn2cc(-c3cc4c([nH]c5ccccc54)c(C)n3)nn2)c2ncccc2c1 (stereo not drawn), the IC50 (HepG2) was greater than 50 µM, the selectivity ratio [2] was greater than 3.46 and the “Ratio IC50” value (Plasmodium falciparum [5]) was 0.74. The IC50 (Plasmodium falciparum [6]) was 857 nM, the IC50 (Plasmodium falciparum [7]) was 632 nM and the IC50 at 72 h [3] was greater than 50 µM. For the same compound, the IC50 (MCF7 [4]) was 14.5 µM, the selectivity ratio [8] was greater than 58.3 and the IC50 (SW-620) was 15.8 µM. For the same compound, the IC50 (HCT-116) was 18.3 µM.
In the case of COc1cc(NC(C)CCCn2cc(COc3ccc4[nH]c5c(C)nccc5c4c3)nn2)c2ncccc2c1 (stereo not drawn), the IC50 (HepG2) is reported as 6.67 µM, the log Ks (Calf thymus DNA [9]) is reported as 3.4 and the Activity (RNA [10]) is reported as “inactive”. The selectivity ratio [2] was 2.67, the “Ratio IC50” value (Plasmodium falciparum [5]) was 2.11 and the Activity (RNA [11]) was “inactive”. The Activity (dsDNA [12]) was “inactive”, the IC50 (Plasmodium falciparum [6]) was 425 nM and the IC50 (Plasmodium falciparum [7]) was 895 nM. For the same compound, the IC50 at 72 h [3] was 25.2 µM, the log Ks (RNA [13]) was 3.4 and the Activity (Calf thymus DNA [14]) was “inactive”. The Activity (RNA [15]) was “inactive”, the IC50 (MCF7 [4]) was 9.45 µM and the IC50 (SW-620) was 8.94 µM. The Activity (dsDNA [16]) was “inactive”, the IC50 (HCT-116) was 18.2 µM and the Drug uptake [17] was “Active”.
For COc1cc(NC(C)CCCNC(=O)NCc2nccc3c2[nH]c2ccccc23)c2ncccc2c1 (stereo not drawn), the Drug uptake [18] was “Not Active”, the Activity (Plasmodium berghei [19]) was “Active” and the IC50 (HepG2) was 0.69 µM. For the same compound, the log Ks (Calf thymus DNA [9]) was 5.5, the Activity (MCF7 [20]) was “inactive” and the Activity (RNA [10]) was “inactive”. The selectivity ratio [2] was less than 0.48, the “Ratio IC50” value (Plasmodium falciparum [5]) was 1.31 and the Activity (RNA [11]) was “inactive”. For the same compound, the Activity (MCF7 [21]) was “Active”, the Activity (dsDNA [12]) was “inactive” and the IC50 (Plasmodium falciparum [6]) was 4700 nM. For the same compound, the Activity (Plasmodium berghei [22]) was “Active”, the Activity (MCF7 [23]) was “Active” and the IC50 (Plasmodium falciparum [7]) was 6130 nM. For the same compound, the IC50 at 72 h [3] was 0.68 µM, the log Ks (RNA [13]) was 4.2 and the Activity (Huh-7 [24]) was “Active”. The Activity (Calf thymus DNA [14]) was “inactive”, the Activity (RNA [15]) was “Active” and the Activity (MCF7 [25]) was “Active”. The Activity (Huh-7 [26]) was “Active”, the IC50 (MCF7 [4]) was 1.43 µM and the selectivity ratio [8] was 0.1. The IC50 (SW-620) was 2.48 µM, the Activity (dsDNA [16]) was “Active” and the IC50 (HCT-116) was 0.94 µM.
In the case of COc1ccc2c(c1)[nH]c1c(C)nccc12 [HARMINE], the IC50 (HepG2) is reported as 14.9 µM, the selectivity ratio [2] is reported as 1.55 and the “Ratio IC50” value (Plasmodium falciparum [5]) is reported as greater than 3.36. It also gave an IC50 (Plasmodium falciparum [7]) greater than 27700 nM, an IC50 at 72 h [3] of 21 µM and a selectivity ratio [8] of 2.5. It also gave an IC50 (SW-620) of 7.32 µM and an IC50 (HCT-116) of 7.64 µM.
In the case of COc1cc(NC(C)CCCn2cc(COc3ccc4[nH]c5c(C)nccc5c4c3)nn2)c2ncccc2c1-c1c(OC)cc(NC(C)CCCn2cc(COc3ccc4[nH]c5c(C)nccc5c4c3)nn2)c2ncccc12 (stereo not drawn), the Activity (Plasmodium berghei [19]) is reported as “Active”, the IC50 (HepG2) is reported as greater than 50 µM and the log Ks (Calf thymus DNA [9]) is reported as 5.8. For the same compound, the Activity (RNA [10]) was “inactive”, the “Ratio IC50” value (Plasmodium falciparum [5]) was 1.12 and the Activity (RNA [11]) was “inactive”. The IC50 (Plasmodium berghei [27]) was 36 nM, the Activity (dsDNA [12]) was “inactive” and the IC50 (Plasmodium falciparum [6]) was 15.4 nM. For the same compound, the Activity (Plasmodium berghei [22]) was “Active”, the IC50 (Plasmodium falciparum [7]) was 17.2 nM and the IC50 at 72 h [3] was greater than 50 µM. For the same compound, the Activity (Huh-7 [24]) was “inactive”, the Drug uptake [28] was “Not Active” and the Activity (Calf thymus DNA [14]) was “inactive”. For the same compound, the Activity (RNA [15]) was “Active”, the Activity (Huh-7 [26]) was “inactive” and the IC50 (MCF7 [4]) was greater than 100 µM. The selectivity ratio [8] was greater than 3250, the IC50 (SW-620) was greater than 50 µM and the Activity (dsDNA [16]) was “Active”. For the same compound, the IC50 (HCT-116) was greater than 50 µM and the IC50 (Plasmodium falciparum [1]) was 90.5 nM.
For CC[C@H](C)[C@H](NC(=O)[C@H]([C@@H](C)CC)N(C)C(C)=O)C(=O)N[C@H](C(=O)N[C@@H](CC(C)C)C(=O)[C@@]1(C)CO1)[C@@H](C)O [EPOXOMYCIN], the IC50 (Plasmodium falciparum [1]) was 16.7 nM.
